Structures can show the parent of a compound that is named as a salt. Where two headings read alike, the source gives them in different places.
Target: T1, human glucokinase (Homo sapiens, UniProt P35557)
T1 construct: made in house; host or cells: E. coli
T1 sequence (P35557 16-465): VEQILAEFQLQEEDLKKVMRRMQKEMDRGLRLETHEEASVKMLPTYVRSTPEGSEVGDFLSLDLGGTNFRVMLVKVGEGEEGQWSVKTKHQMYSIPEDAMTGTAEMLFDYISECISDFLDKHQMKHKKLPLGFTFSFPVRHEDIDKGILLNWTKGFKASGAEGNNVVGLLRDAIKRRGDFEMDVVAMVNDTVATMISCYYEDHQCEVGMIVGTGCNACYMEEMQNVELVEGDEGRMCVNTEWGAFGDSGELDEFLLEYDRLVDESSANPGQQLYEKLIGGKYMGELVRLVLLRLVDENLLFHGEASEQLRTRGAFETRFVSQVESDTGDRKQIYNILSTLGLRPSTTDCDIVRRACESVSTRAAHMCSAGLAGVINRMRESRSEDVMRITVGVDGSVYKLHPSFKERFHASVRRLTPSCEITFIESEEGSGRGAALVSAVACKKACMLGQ
Experiment: Measurement of glucokinase activity (G6PDH-coupled, absorbance at 340 nm)
Type: biochemical
Conditions: read-out: GK activation effect (%)
Procedure: To the EcoRI, HindIII site of a pQE-80 expression vector were introduced a DNA fragment in which the same restriction enzyme site had been added to the N-terminal deficiency (1-15 amino acids deficiency)-encoding region of a human GK. E. coli was transformed by using this plasmid to express a human glucokinase, and purification was conducted as follows.
A fungus body that had been collected from 200 ml of an E. coli culture solution was collected and suspended in 20 ml of Extraction buffer A (20 mM HEPES, pH 8.0, 1 mM MgCl2, 150 mM NaCl, 2 mM mercaptoethanol, 0.25 mg/ml lysozyme, […] sodium azide), and the suspension was stood still at room temperature for 5 minutes. 20 ml of Extraction buffer B (1.5 M NaCl, 100 mM CaCl2, 100 mM MgCl2, 0.02 mg/ml DNA catabolic enzyme 1, a protease inhibitor tablet (Complete (registered trademark) 1697498): one tablet per 20 ml of the buffer) was added therero, followed by standing still at room temperature for 5 minutes. The extract liquid was then centrifuged by 15,000 g for 30 minutes at 4° C., and the supernatant was used as an E. coli extract liquid. The E. coli extract liquid was filtered by a 0.45 μm filter and applied to an Ni-NTA agarose 2 mL bed that had been equilibrated with a buffer (20 mM HEPES pH 8.0, 0.5 M NaCl) comprising 20 mM of imidazole. The bed was washed with about 10 ml of a washing buffer and eluted stepwise with buffers (20 mM HEPES pH 8.0, 0.5 M NaCl) each comprising imidazole by from 40 to 500 mM. Each of the column fractions was analyzed by using SDS gel electrophoresis, and the fraction comprising hGK (MW: 52 KDa) was concentrated. The concentrated sample was then passed through a Sephacryl S-200HR (11/60) gel filtration column and eluted with buffer B (20 mM HEPES, pH 8.0, 1 mM MgCl2, 150 mM NaCl, 1 mM DTT). The eluted fraction was analyzed by SDS gel electrophoresis, and the fraction comprising hGK was concentrated. Finally, 50% glycerol was added to the fraction, and the fraction was stored at −20° C.
178 μl of GK assay mix (25 mM Hepes buffer (pH 7.1), 25 mM KCl, 2 mM MgCl2, 1 mM NADP, 1 mM dithiotheitol, 2 unit/mL G6PDH, 5 mM D-glucose, a suitable amount of GK) was added to a UV permeable 96-well plate. 2 μl of the test compound dissolved in DMSO was added thereto, followed by standing still at room temperature for 10 minutes, and 20 μl al of 20 mM ATP was then added thereto to start a reaction. An absorbance at 340 nm was measured by Spectra Max Plus for 5 minutes at intervals of 30 seconds at room temperature, and the compound was evaluated in the reaction at the first 3 minutes.

[1] = test compound at final concentration of 10 μM, 5 mM D-glucose, in comparison with a well that did not comprise the compound

Structure (SMILES) | activation at 10 µM [1] | activation at 10 µM
Cc1sc(C2CCCN2C(=O)CNC(N)=O)cc1C(=O)Nc1ncc(F)s1 (single isomer, unassigned; (-)) [Example 10, (−)-2-Methyl-5-[1-(2-ureidoacetyl)pyrrolidin-2-yl]thiophene-3-carboxylic acid (5-fluorothiazol-2-yl)amide] | 600% | 
Cc1sc(C2CCCN2C(=O)[C@H](C)NC(N)=O)cc1C(=O)Nc1ncc(F)s1 (single isomer, unassigned; (-)) [Example 22] | 613% | 
Cc1sc([C@@H]2C[C@@H](F)CN2C(=O)CNS(C)(=O)=O)cc1C(=O)Nc1ncc(F)s1 [Example 12, (−)-5-[(2S,4R)-4-Fluoro-1-(2-methanesulfonylaminoacetyl)pyrrolidin-2-yl]-2-methylthiophene-3-carboxylic acid (5-fluorothiazol-2-yl)amide] |  | 630%
CC(=O)N[C@@H](C)C(=O)N1C[C@H](F)C[C@H]1c1cc(C(=O)Nc2ncc(F)s2)c(C)s1 [Example 23, (−)-5-[(2S,4R)-1-((S)-2-Acetylaminopropionyl)-4-fluoropyrrolidin-2-yl]-2-methylthiophene-3-carboxylic acid (5-fluorothiazol-2-yl)amide] |  | 641%
Cc1sc([C@@H]2C[C@@H](F)CN2C(=O)CN(C)CC(=O)O)cc1C(=O)Nc1ncc(F)s1 [Example 38, [(2-{(2S,4R)-4-Fluoro-2-[4-(5-fluorothiazol-2-ylcarbamoyl)-5-methylthiophen-2-yl]pyrrolidin-1-yl}-2-oxoethyl)methylamino]acetic acid hydrochloride] | 801% | 
Cc1sc(C2CCCN2C(=O)CN(C)CCCCC(=O)O)cc1C(=O)Nc1ncc(F)s1 (stereo not drawn) [Example 78, 5-[(2-{2-[4-(5-Fluorothiazol-2-ylcarbamoyl)-5-methylthiophen-2-yl}pyrrolidin-1-yl]-2-oxoethyl)methylamino]pentanoic acid hydrochloride] | 695% | 
Cc1sc(C2CCCN2C(=O)CN(C)CCCCC(=O)O)cc1C(=O)Nc1ncc(Cl)s1 (stereo not drawn) [Example 79, 5-[(2-{2-[4-(5-Chlorothiazol-2-ylcarbamoyl)-5-methylthiophen-2-yl]pyrrolidin-1-yl}-2-oxoethyl)methylamino]pentanoic acid hydrochloride] | 717% | 
CCCCCN(CC(=O)O)CC(=O)N1C[C@H](F)C[C@H]1c1cc(C(=O)Nc2ncc(F)s2)c(C)s1 [Example 80, [(2-[(2S,4R)-4-Fluoro-2-[4-(5-fluorothiazol-2-ylcarbamoyl)-5-methylthiophen-2-yl]pyrrolidin-1-yl]-2-oxoethyl)pentylamino]acetic acid] | 752% | 
CCCCCN(CC(=O)O)CC(=O)N1CCCC1c1cc(C(=O)Nc2ncc(F)s2)c(C)s1 (stereo not drawn) [Example 81, [(2-[2-[4-(5-Fluorothiazol-2-ylcarbamoyl)-5-methylthiophen-2-yl]pyrrolidin-1-yl]-2-oxoethyl)pentylamino]acetic acid] | 787% | 

From patent US20120101137A1, “NOVEL THIOPHENECARBOXAMIDE DERIVATIVE AND PHARMACEUTICAL USE THEREOF” (SANWA KAGAKU KENKYUSHO CO., LTD., priority 2009, published 2012)
